Laboratory results taken from PMC6154393 (Bioorganic & medicinal chemistry, 2018).
Converted amounts (≈) assume the structure as drawn.

Key:
[1] = in vitro; conditions: monkey
[2] = test system: Mtb Erdman strain; assay: BALB/c acute infection model, oral administration; assay type: in vivo, Mycobacterium tuberculosis
[3] = in vitro; conditions: human, Caco-2
[4] = test system: non-replicating Mtb (H37Rv); assay: microbe, parasite or virus in culture; assay type: cell-based; conditions: Mycobacterium tuberculosis, 240 h, read-out: MIC (LORA)
[5] = mouse, in vivo, iv, 10 mg/kg
[6] = test system: intracellular Mtb CDC1551-tdTomato in macrophages (J774A.1 cells); assay: Killing effect against intracellular Mtb in J774A.1 macrophages; assay type: cell-based, Mycobacterium tuberculosis; conditions: at 2xMIC; for Killing of intracellular Mtb (in words): J774A.1 macrophages
[7] = in vivo; conditions: BALB/c, mouse, po, 30 mg/kg
[8] = test system: Mycobacterium smegmatis; conditions: cited from earlier work

CC[C@@H](CO)NCCN[C@@H](CC)CO [Ethambutol (EMB), Ethambutol]
IC50 at 72 h [1]: > 200 µg/mL

NNC(=O)c1ccncc1 [Isoniazid (INH), Isoniazid, reference compound]
IC50 at 72 h [1]: > 200 µg/mL | Log reduction ([2]; 2.5 mg/kg, 3 weeks, lung burden relative to untreated control): about 4 Log10

CC(=O)NC[C@H]1CN(c2ccc(N3CCOCC3)c(F)c2)C(=O)O1 [Linezolid]
IC50 at 72 h [1]: > 200 µg/mL

CNC(=C[N+](=O)[O-])NCCSCc1ccc(CN(C)C)o1 [Ranitidine]
Papp A→B at 2 h, 10 µM [3]: 0.237 ×10⁻⁶ cm/s | efflux ratio at 2 h, 10 µM [3]: 5

CO[C@H]1/C=C/O[C@@]2(C)Oc3c(C)c(O)c4c(O)c(c(/C=N/N5CCN(C)CC5)c(O)c4c3C2=O)NC(=O)/C(C)=C\C=C\[C@H](C)[C@H](O)[C@@H](C)[C@@H](O)[C@@H](C)[C@H](OC(C)=O)[C@@H]1C [Rifampicin (RIF), Rifampicin]
IC50 at 72 h [1]: > 200 µg/mL

CC[C@]1(C)C[C@@H](OC(=O)CSC(C)(C)CNC(=O)[C@H](N)CC(C)C)[C@]2(C)[C@H](C)CC[C@]3(CC[C@@H](O)[C@H]32)[C@@H](C)[C@@H]1O [UT-800 (1)]
MIC [4]: 1.04 to 3.46 µg/mL (≈ 1.78 to 5.94 µM) | AUC0-24h [5]: 66,281 ng•h/g | Time to kill Mtb in infected macrophages ([6]; J774A.1 cells, Mtb CDC1551-tdTomato): ≤ 72 h | Killing of intracellular Mtb (in words) [6]: kills intracellular Mtb faster than rifampicin | Killing of intracellular Mtb (in words) ([6]; listed as 1): killed intracellular Mtb more effectively than INH and RIF | Tmax [7]: ≤ 1 h | Log10 cfu/mouse ([2]; 100 mg/kg, oral, 3 weeks, lungs, BALB/c mice, mean of 5): 8.1E+05 | Viable organisms persisted ([2]; 200 mg/kg, 3 weeks): 5.6-5.7 log10 cfu/mouse | Log10 cfu/mouse ([2]; 200 mg/kg, oral, 3 weeks, lungs, BALB/c mice, mean of 5): 4.4E+05 | Log10 cfu/mouse ([2]; in vivo): 1.2E+06

C=C[C@]1(C)C[C@@H](OC(=O)CSC(C)(C)CNC(=O)[C@H](N)CC(C)C)[C@]2(C)[C@H](C)CC[C@]3(CCC(=O)[C@H]32)[C@@H](C)[C@@H]1O [UT-810 (2)]
MIC [4]: 1.04 to 3.46 µg/mL (≈ 1.8 to 5.98 µM)

CC[C@]1(C)C[C@@H](OC(=O)CSC(C)(C)CNC(=O)[C@H](N)CC(C)C)[C@]2(C)[C@H](C)CC[C@]3(CCC(=O)[C@H]32)[C@@H](C)[C@@H]1O [UT-815 (3)]
MIC [4]: 1.04 to 3.46 µg/mL (≈ 1.79 to 5.96 µM)

C=C[C@]1(C)C[C@@H](OC(=O)CSC(C)(C)CNC(=O)[C@H](N)CC(C)C)[C@]2(C)[C@H](C)CC[C@]3(CC[C@@H](O)[C@H]32)[C@@H](C)[C@@H]1O [UT-820 (4)]
MIC [4]: 1.04 to 3.46 µg/mL (≈ 1.79 to 5.96 µM)

C=C[C@]1(C)C[C@@H](OC(=O)CSC(C)(C)CNC(=O)[C@H](N)C(C)C)[C@]2(C)[C@H](C)CC[C@]3(CCC(=O)[C@H]32)[C@@H](C)[C@@H]1O [Valnemulin]
IC50 at 72 h [1]: 15 µg/mL (≈ 26.6 µM) | MIC [8]: 8 to 16 µg/mL
